Laboratory results reported in the NIST ThermoML archive (doi:10.1016/j.fluid.2013.06.044).
Numbers after ± are expanded uncertainties.

Key:
[1] = refractive index (Na D-line) (dimensionless); conditions: 298.15 K; 101.33 kPa; Liquid; Standard Abbe refractometry
[2] = Liquid, Closed cell (Static) method

Row | Structure (SMILES) | refractive index [1] | vapor or sublimation pressure ([2]; 336.67 K) | vapor or sublimation pressure ([2]; 350.33 K) | vapor or sublimation pressure ([2]; 350.35 K) | vapor or sublimation pressure ([2]; 350.41 K) | vapor or sublimation pressure ([2]; 350.4 K) | vapor or sublimation pressure ([2]; 350.36 K)
1 | CSC [2-thiapropane] | 1.43127 ± 0.00031 | 232.9 ± 1 kPa | 340.4 ± 1.4 kPa | 340.3 ± 0.9 kPa | 340.4 ± 0.9 kPa | – | –
2 | COC [dimethyl ether] | – | 1576.5 ± 6.2 kPa | – | – | – | – | –
3 | CCO [ethanol] | 1.35959 ± 0.00037 | – | – | – | – | 96.5 ± 0.9 kPa | –
4 | COC(C)=O [methyl ethanoate] | 1.3589 ± 0.00036 | – | – | – | – | – | 196 ± 1 kPa
